Experimental data taken from patent US20260034119A1, “5-METHOXY-N,N-[…][…], THEIR […], AND METHODS FOR TREATMENT OF NEUROLOGICAL, […], AND SUBSTANCE USE DISORDERS” (priority 2023, published 2026).
Entries after “also recorded” stand apart in the source; their conditions may differ. Read-outs that look alike come from different tables or passages of the source.

Assays:
5-HT2B = 5-HT2B (Homo sapiens, UniProt P41595); test: IP1 functional assay 5-HT2B; type: cell-based; details: for Emax: read-out: 5-HT2B (IP1) Emax (%5-HT)
C57BL/6J mice [1] = test: Head twitch response (HTR); type: in vivo, mouse; details: s.c., presence or absence of 5-HT1A antagonist WAY-100635
Procedure: The head-twitch response evaluation was performed by trained observers who were blinded to both drug and dose. Mice were habituated to the testing room 30 min. The body weight of each mouse was recorded. The HTR was defined as a rapid rotational movement of the head around the longitudinal axis of the animals' body. Mice were administered with vehicle or WAY100,635 (1 mg/kg or 2 mg/kg, sc). Fifteen minutes after the pretreatment injection mice were administered either 4F, 5-MeO-MET (0.1, 0.3, 1 or 3 mg/kg, sc) or 5-MeO-MET (0.3, 1, 3, and 10 mg/kg, sc) and placed in a novel observation cage. An overhead camera (GoPro HERO9 at a 120 Hz, San Mateo, CA, US) recorded their movements. Observers scored HTR from recorded footage for the first 10-min period.

mice = test: Open field locomotor activity; type: in vivo, mouse; details: mice, s.c.
5-HT2A [2] = molecular target: T1, 5-HT2A (Homo sapiens, UniProt P28223); test: cell-based; set-up: expressed in transfected cells; host or cells: HEK293-T; details: for Emax: read-out: 5-HT2A (IP1) Emax (%5-HT)
5-HT1A [3] = molecular target: T2, 5-HT1A (Homo sapiens, UniProt P08908); test: BRET signaling assay: 5-HT1A-mediated activation of heterotrimeric Gi1 (TRUPATH, HEK293-T); details: Gi BRET EC50
MAO-A = molecular target: T3, MAO-A (Homo sapiens, UniProt P21397); test: MAO-A activity (metabolism of compound); details: versus the DMT analogs
T3 sequence (P21397 1-527): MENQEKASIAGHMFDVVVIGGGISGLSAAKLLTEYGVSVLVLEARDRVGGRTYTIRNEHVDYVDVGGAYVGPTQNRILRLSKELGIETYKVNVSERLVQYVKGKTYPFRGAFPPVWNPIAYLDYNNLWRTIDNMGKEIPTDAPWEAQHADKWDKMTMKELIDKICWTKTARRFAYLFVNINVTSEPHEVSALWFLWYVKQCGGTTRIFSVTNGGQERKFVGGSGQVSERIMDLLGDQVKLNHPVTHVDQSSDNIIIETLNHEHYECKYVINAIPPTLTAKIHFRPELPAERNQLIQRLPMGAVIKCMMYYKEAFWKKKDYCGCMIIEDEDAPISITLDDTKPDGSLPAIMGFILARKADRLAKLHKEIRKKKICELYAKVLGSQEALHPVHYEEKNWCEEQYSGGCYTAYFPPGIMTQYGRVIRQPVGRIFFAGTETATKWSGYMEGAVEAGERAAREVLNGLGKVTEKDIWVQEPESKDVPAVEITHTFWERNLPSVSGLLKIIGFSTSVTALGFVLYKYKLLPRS

5-HT2A [4] = molecular target: T1, 5-HT2A; test: cell-based
[5] = Microsomal stability, human liver microsomes; type: in vitro ADME; details: versus the DMT analogs
Procedure: Microsomal incubations were carried out in 96-well plates in 5 aliquots of 30 μL each (one for each time point). Liver microsomal incubation medium comprised of phosphate buffer (100 mM, pH 7.4), MgCl2 (3.3 mM), NADPH (3 mM), glucose-6-phosphate (5.3 mM), glucose-6 phosphate dehydrogenase (0.67 units/ml) with 0.42 mg of liver microsomal protein per ml. In the control reactions the NADPH-cofactor system was substituted with phosphate buffer. Test compounds (2 μM, final solvent concentration 1.6%) were incubated with microsomes at 37° C., shaking at 100 rpm. Each reaction was performed in duplicates. Five time points over 90 minutes were analyzed. The reactions were stopped by adding 5 volumes of methanol containing internal standard to incubation aliquots, followed by protein sedimentation by centrifuging at 5500 rpm for 4 minutes. Supernatants were analyzed using the HPLC system coupled with tandem mass spectrometer. The elimination constant (kel), half-life (t1/2) and intrinsic clearance (Clint) were determined in plot of […] versus time, using linear regression analysis.

human 5-HT1A = molecular target: T4, human 5-HT1A (Homo sapiens, UniProt P08908); test: cell-based
T4 sequence (P08908 1-422): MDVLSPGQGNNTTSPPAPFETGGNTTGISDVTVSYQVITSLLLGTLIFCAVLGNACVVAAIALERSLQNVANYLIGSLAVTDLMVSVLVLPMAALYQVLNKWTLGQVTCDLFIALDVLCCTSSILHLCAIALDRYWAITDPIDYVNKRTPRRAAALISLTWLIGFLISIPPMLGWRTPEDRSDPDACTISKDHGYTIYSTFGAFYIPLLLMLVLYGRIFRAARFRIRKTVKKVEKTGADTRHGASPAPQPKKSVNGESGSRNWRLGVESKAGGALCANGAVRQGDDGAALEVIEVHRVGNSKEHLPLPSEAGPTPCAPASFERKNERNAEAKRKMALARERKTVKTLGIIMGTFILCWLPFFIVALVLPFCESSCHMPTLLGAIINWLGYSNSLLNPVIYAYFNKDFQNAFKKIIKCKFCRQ

5-HT1A [6] = molecular target: T2, 5-HT1A; test: cell-based
C57BL6J mice = test: Catalepsy bar test (tetrabenazine / haloperidol induced); type: in vivo, mouse; details: 10.0 & 20.0 mg/kg s.c., 60 min post inj., vs vehicle
From the text: Catalepsy, characterized by muscular rigidity and fixity of posture irrespective of external stimuli (Mann et al. 2015, Karuppagounder et al 2012) is a recognized model for Parkinson's disease (PD) in rodents, induced by dopamine (DA) antagonists such as haloperidol, and DA depleting agents like tetrabenazine (TBZ) (Jastrzębska-Więsek et al. 2022, Bhangale et al. 2016). TBZ, a reversible inhibitor of the type-2 vesicular monoamine transporter, primarily affects dopamine neurons by blocking vesicular storage and depleting monoamines (Jastrzębska-Więsek et al. 2022). In contrast, Haloperidol, a nonselective D2 dopamine antagonist, […] (Bhangale et al. 2016). C57BL6J mice are administered TBZ/Haloperidol at t=0 min and 4-F, 5-MeO-PyrT at t=30 min via subcutaneous injection, with Haloperidol (0.5 mg/kg) given intraperitoneal injection. Mice are tested individually at t=60 min, and catalepsy is defined by the absence of movement for 30-60 seconds with a cutoff time set to 60 second. […] The automated Maze Engineers Catalepsy Bar test, featuring sensors to detect forelimb removal from the bar, facilitates automatic recording of forelimb movement duration from the bar to the ground.

C57BL/6J mice [7] = test: Sucrose preference test after chronic social defeat stress; type: in vivo, mouse; details: stressed mice, relative to vehicle-treated animals
From the text: The sucrose preference test is a volitional two-bottle choice procedure in which mice are given the choice between consuming water and a 1% sucrose solution. This paradigm has been used extensively to assess the effects of stress-induced anhedonia. On day 10 of CSDS mice were individually housed and habituated to two bottles containing just water. Twenty-four hours later, following the SI test, one bottle was replaced with a 1% sucrose solution (w/v) made with water from the animal vivarium. Mice had ad libitum overnight access to both bottles and preference for sucrose over water was calculated as follows: [sucrose/(sucrose+water)*100]. Data were averaged from two independent experiments. A total of 27 mice were administered vehicle (9 control, 18 stress), 27 received 4-F, 5-MeO-PyrT (9 control, 18 stress), 15 received WAY-100635 (5 control, 10 stress), and 15 received 4-F, 5-MeO-PyrT+WAY-100635 (5 control, 10 stress). More animals were used for the stressed groups due to the inherent resilience of mice to social defeat stress (Krishnan et al. 2007). Analysis of different treatment conditions of control and stressed animals was done in GraphPad Prism using two-way ANOVA.

T1 sequence (P28223 whole entry): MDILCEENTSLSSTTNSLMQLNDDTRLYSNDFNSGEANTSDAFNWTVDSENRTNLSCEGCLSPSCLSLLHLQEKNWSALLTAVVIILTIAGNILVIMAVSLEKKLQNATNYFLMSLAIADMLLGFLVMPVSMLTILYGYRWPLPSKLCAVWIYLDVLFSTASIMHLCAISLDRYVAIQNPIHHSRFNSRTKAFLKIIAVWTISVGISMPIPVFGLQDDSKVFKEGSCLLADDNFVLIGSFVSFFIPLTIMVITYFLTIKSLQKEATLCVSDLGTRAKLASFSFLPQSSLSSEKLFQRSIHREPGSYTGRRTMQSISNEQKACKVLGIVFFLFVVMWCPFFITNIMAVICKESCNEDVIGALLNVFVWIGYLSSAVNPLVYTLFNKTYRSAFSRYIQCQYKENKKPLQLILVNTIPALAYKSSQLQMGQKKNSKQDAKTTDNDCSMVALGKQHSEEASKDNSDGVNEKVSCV
5-HT2B, sequence (P41595 whole entry, species assumed): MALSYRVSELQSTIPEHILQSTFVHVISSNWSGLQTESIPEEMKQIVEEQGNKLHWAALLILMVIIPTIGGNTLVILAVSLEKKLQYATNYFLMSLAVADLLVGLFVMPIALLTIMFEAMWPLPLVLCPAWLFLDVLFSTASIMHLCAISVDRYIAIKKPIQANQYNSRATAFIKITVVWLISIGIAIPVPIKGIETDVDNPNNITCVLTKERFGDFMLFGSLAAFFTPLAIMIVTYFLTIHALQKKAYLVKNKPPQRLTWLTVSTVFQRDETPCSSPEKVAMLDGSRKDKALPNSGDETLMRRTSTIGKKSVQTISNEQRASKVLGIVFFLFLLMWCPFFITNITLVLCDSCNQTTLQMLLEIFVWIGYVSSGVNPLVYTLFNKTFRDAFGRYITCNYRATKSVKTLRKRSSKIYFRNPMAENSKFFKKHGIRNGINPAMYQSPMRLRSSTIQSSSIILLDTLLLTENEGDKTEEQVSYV

CCN(C)CCc1c[nH]c2ccc(OC)cc12 [Compound 5-MeO-MET]
EC50 (5-HT2B; Table 3, read-out: 5-HT2B (IP1) EC50): 130 nM
Emax (5-HT2B; Table 3): 62%
head-twitch response (HTR), measure of 5-HT2A-mediated hallucinogenic activity (C57BL/6J mice [1]): robust HTR in the presence of WAY100; also recorded: robust dose-dependent activity
locomotor suppression in the open field (OF) test (mice): dose-dependent locomotor suppression
EC50 (5-HT2A [2]): 96 nM
Emax (5-HT2A [2]): 107%
EC50 (5-HT1A [3]): 25.9 nM

CCCN(CCC)CCc1c[nH]c2ccc(OC)c(F)c12 [Compound 30, N-(2-(4-fluoro-5-methoxy-1H-indol-3-yl)ethyl)-N-propylpropan-1-amine]
MAO A metabolism (MAO-A): markedly slower MAO A metabolism versus the DMT analogs
EC50 (5-HT2B): 99 nM
Emax (5-HT2B; Table 3): 86%
EC50 (5-HT2A [4]): 142 nM
EC50 (5-HT2A [2]): 180 nM
Emax (5-HT2A [2]): 100%
microsomal stability in human microsomes [5]: greater stability in human microsomes versus the DMT analogs
EC50 (human 5-HT1A): 1.31 nM
EC50 (5-HT1A [6]): 3.7 nM

COc1cc2c(cc1OC)C1CC(=O)C(CC(C)C)CN1CC2 (stereo not drawn) [Tetrabenazine]
induction of catalepsy (C57BL6J mice): significantly induces catalepsy

COc1ccccc1N1CCN(CCN(C(=O)C2CCCCC2)c2ccccn2)CC1 [WAY-100635, reference compound]
sucrose preference (C57BL/6J mice [7]): not statistically significant
